Series [1] can be described thus: 225Ac-labeling of ligands in serial dilution, radiochemical yield and 7-day stability by TLC. The series is classed as physicochemical. As to conditions: 100 kBq actinium-225, 0.2 M ammonium acetate buffer pH 6, after seven days; for RCY NP (7 d): normal phase TLC, silica, 50 mM EDTA pH 7; for RCY RP (7 d): reversed-phase TLC, Alugram RP-CN, acetonitrile/water 7/3. On the procedure: To compare the efficiency of the synthesized chelators and their conjugates, 100 kBq of actinium-225 were incubated with each ligand at different concentrations (10^−5 M; 10^−6 M; 10^−7 M). The radiochemical yield was determined after one hour of reaction time using normal phase and reversed-phase TLC. Whereas one TLC-system was designed to move free actinium-225 with the solvent front, the other system was developed only to move the actinium-225 labeled complexes. Concentration-dependent radiochemical yields for all ligands and 7-day-longterm yields, which were calculated using both TLC systems, are presented in Table 1.
Actinium-225 was purchased as a 0.1 M HCl solution from ITM Munich and used without purification. Stem solutions of all ligands were prepared in concentrations of 10^−2 M and diluted to 10^−6 M using 0.2 M ammonium acetate buffer at pH 6. For concentration-dependent labeling experiments, 10 µL of each ligand stem solution was incubated with 100 kBq of actinium-225 (1–5 µL) and the total volume was adjusted to 100 µL with 0.2 M ammonium acetate buffer at pH 6. For stability analyses, 50 µL of the buffer volume were replaced by 50 µL of 0.2 M ascorbic acid or 50 µL of 2,5-dihydroxy benzoic acid, respectively. Labeling for cell-binding studies was performed using 1.5 MBq of actinium-225 and 4 nmol of the respective PSMA ligand in a total volume of 400 µL adjusted with 0.2 M ammonium acetate buffer at pH 6. Radiolabeling for cell survival studies and all in vivo experiments were performed using 1.5 MBq of actinium-225 and 3.3 nmol of the respective ligand.
All samples were incubated for one hour at room temperature and analyzed afterward. TLC analyses were carried out in two different systems, normal phase on silica plates in 50 mM EDTA solution (pH 7) and reversed-phase on Alugram RP-CN in acetonitrile/water (7/3). TLC plates were imaged using a phosphoimager Amersham Typhoon 5 Scanner (Cytiva Europe GmbH, Freiburg, Germany) after a decay time of at least 7 h. Analytical HPLC was performed using a Jasco HPLC system with RITA analyzer (Elysia-raytest GmbH, Straubenhardt, Germany) for gamma detection on a Phenomenex Phenyl-Hexyl column in water/acetonitrile (+ 0.1% TFA). Radioactivity was measured in Isomed 2100 dose calibrator. Low radioactivity count rates were determined in Isomed 2160 sodium iodide detector. More precise measurements and nuclide identification were carried out on an activity- and efficiency-calibrated HPGe detector CryoPulse 5 (Canberra).

Series [2] has as its system LNCaP cells. As to the kind of experiment: Colony formation assay. Format: cell-based, human. As to conditions: for Percentage amount of colonies referred to the non-radioactive control: 8 days colony growth. On the procedure: LNCaP cells were plated in 6-well cell culture microplates (Greiner Bio-One GmbH, Frickenhausen, Germany) at a density of 6 × 10^3 cells/2 mL/well. […] After 1 or 4 h of incubation, the cell culture media was removed and fresh media was added to each well. Plates were then incubated at 37 °C for 8 days and re-fed every 3 to 4 days. […] The plates were scanned with an Amersham Typhoon 5 Scanner (Cytiva Europe GmbH, Freiburg, Germany) and the colonies were counted using the Image-Quant TL software (Version 8.1, Cytiva Europe GmbH, Freiburg, Germany).

For series [3], the system named is LNCaP cells. Description: CyQUANT direct cell proliferation assay. The series is classed as cell-based, human. As to conditions: highest applied dose, 4 h of exposure, cell number 24 h after treatment by DNA staining. On the procedure: The treatment response on cellular proliferation was assessed using the CyQUANT direct cell proliferation assay (Thermo Fisher Scientific, Waltham, MA, USA). For this purpose, LNCaP cells were plated in black 96 well cell culture microplates (Greiner Bio-One GmbH, Frickenhausen, Germany) at a density of 2 × 10^4 cells/0.05 mL/well. […] After 1 or 4 h of incubation, the cell culture media was removed and fresh media was added to each well. Cell numbers were subsequently determined 24 h later as per the manufacturer’s protocol. The fluorescence intensity was measured with the Varioskan Flash microplate reader (Thermo Fisher Scientific, Waltham, MA, USA).

The nature of the next series: logD7.4 determination. Format: physicochemical. Conditions: pH 7.4, 225Ac complex.
A further series relates to LNCaP tumor-bearing mice. Description: Biodistribution in LNCaP tumor-bearing SCID mice. The series is classed as in vivo, mouse. From the text: The SCID male mice (ENVIGO, Indianapolis, IN, USA) 6–8 weeks old were subcutaneously injected into the right flank with 10 × 10^6 LNCaP cells (ATCC, Manassas, VA, USA) mixed with Matrigel Matrix (Corning, Corning, NY, USA) at a 1:1 ratio. The tumor growth was continuously monitored by caliper-based measurements. When the tumor volume reached 200–300 mm^3 (i.e., 5–6 weeks after the inoculation of cells), the mice were used for biodistribution studies. The experimental animals were housed in a specific-pathogen-free animal facility. All experiments with animals were performed in accordance with appropriate legal norms (Czech Law No. 246/1992) and with the approval of the Ministry of Education, Youth and Sports (MSMT-35035/2019-3) and approval of the Ethical Committee of Faculty of Medicine and Dentistry, Palacky University in Olomouc. The number of animals was reduced as much as possible (n = 4 per group and time point) for all in vivo experiments.
For biodistribution studies, the radiotracers were diluted with saline. The prepared radiotracers were applied retro-orbitally (r.o.) to the experimental animals at a dose of 50 kBq per mouse corresponding to 10 pmol of the peptide. The tracer injection was carried out under 2% isoflurane anesthesia (FORANE, Abbott Laboratories, Abbott Park, IL, USA) to minimize animal suffering and to prevent animal motion. The mice were sacrificed by cervical dislocation 10 min, 60 min and 24 h post-injection and organs of interest (blood, spleen, pancreas, stomach, intestine, kidneys, liver, heart, lungs, muscle, bone and tumor) were collected. The samples were weighed and the activity was measured on an automatic gamma counter. The radiotracer accumulation was expressed as a percentage of injected dose per gram (%ID/g) of the corresponding organ.

Where [4] appears, read: 1 h incubation time, 0.05 kBq/mL.
Setting [5] is: 1 h incubation time, 0.5 kBq/mL.
Where [6] appears, read: 4 h incubation time, 0.05 kBq/mL.
[7] abbreviates: 4 h incubation time, 0.5 kBq/mL.
[8] abbreviates: LNCaP tumor-bearing SCID mice, 24 h p.i.

Data on six molecules can be found in paper PMC8073976, “Towards Targeted Alpha Therapy with Actinium-225: Chelators for Mild Condition Radiolabeling and Targeting PSMA—A Proof of Concept Study” (Cancers, 2021).

Each structure is given as a SMILES string.

Consider `O=C([O-])c1cccc(CN2CCOCCOCCN(Cc3cccc(C(=O)[O-])n3)CCOCCOCC2)n1.[225Ac+3]` [[^225Ac]Ac-macropa, reference compound], for which the “RCY NP (7 d)” value in series [1] (ligand 10^−5 M), in series [1] (ligand 10^−6 M) and in series [1] (ligand 10^−7 M) was 99% throughout. Moreover, the “RCY RP (7 d)” value in series [1] (ligand 10^−5 M), in series [1] (ligand 10^−6 M) and in series [1] (ligand 10^−7 M) was 99% each time.

Consider `O=C(O)CC[C@H](NC(=O)N[C@@H](CCCCNC(=O)[C@H](Cc1ccc2ccccc2c1)NC(=O)[C@H]1CC[C@H](CNC(=O)CCCCn2cc(COc3cc(CN4CCOCCOCCN(Cc5cc(OCc6cn(CCCCC(=O)NC[C@H]7CC[C@H](C(=O)N[C@@H](Cc8ccc9ccccc9c8)C(=O)NCCCC[C@H](NC(=O)N[C@@H](CCC(=O)O)C(=O)O)C(=O)O)CC7)nn6)cc(C(=O)O)n5)CCOCCOCC4)nc(C(=O)O)c3)nn2)CC1)C(=O)O)C(=O)O` [[^225Ac]Ac-mcp-D-PSMA, metal not drawn], for which the “inhibition of colony formation” value with LNCaP cells [2] (5 and 50 kBq/mL, 4 h) is recorded as roughly 100%. For the same molecule, the “Percentage amount of colonies referred to the non-radioactive control” value with LNCaP cells [2] (setting [4]) was determined as 75.0%; with LNCaP cells [2] (setting [5]) it was 3.8%; in the series on LNCaP cells [2] (1 h incubation time, 5 kBq/mL), 3.1%; in the series with LNCaP cells [2] (1 h incubation time, 50 kBq/mL) it was 0.8%; with LNCaP cells [2] (setting [6]), 49.1%; in the series with LNCaP cells [2] (setting [7]) it was 6.2%. The “Percentage amount of colonies referred to the non-radioactive control” value in the series with LNCaP cells [2] (4 h incubation time, 5 kBq/mL) is 0.5%; with LNCaP cells [2] (4 h incubation time, 50 kBq/mL), 0.4%. Besides, the entries for the “RCY NP (7 d)” value in series [1] (ligand 10^−5 M), in series [1] (ligand 10^−6 M) and in series [1] (ligand 10^−7 M) were 99%, 99% and 95%, respectively. Further, in the series on LNCaP cells [3], the “decrease of relative cell number” value is recorded as “approximately one third”. This molecule yielded a logD7.4 in “logD7.4 determination” of −2.5 ± 0.1. For the same molecule, in the series on LNCaP tumor-bearing mice (mouse, in vivo), the Tumor-to-blood ratio worked out at 158.11. Further, in the series on LNCaP tumor-bearing mice (mouse, in vivo), the tumor-to-muscle ratio is on record as 275.77.

As for `C#CCOc1cc(CN2CCOCCOCCN(Cc3cc(OCC#C)cc(C(=O)[O-])n3)CCOCCOCC2)nc(C(=O)[O-])c1.[225Ac+3]` [[^225Ac]Ac-mcp-D-click], the entries for the “RCY NP (7 d)” value in series [1] (ligand 10^−5 M), in series [1] (ligand 10^−6 M) and in series [1] (ligand 10^−7 M) were 99%, 99% and 50%, respectively. For the same molecule, the “RCY RP (7 d)” value is listed as 99% in series [1] (ligand 10^−5 M), 94% in series [1] (ligand 10^−6 M) and 40% in series [1] (ligand 10^−7 M).

Regarding `O=C(O)CCCCn1cc(COc2cc(CN3CCOCCOCCN(Cc4cccc(C(=O)[O-])n4)CCOCCOCC3)nc(C(=O)[O-])c2)nn1.[225Ac+3]` [[^225Ac]Ac-mcp-M-COOH], the “RCY NP (7 d)” value in series [1] (ligand 10^−5 M), in series [1] (ligand 10^−6 M) and in series [1] (ligand 10^−7 M) was 99% in each case. Also, the results for the “RCY RP (7 d)” value in series [1] (ligand 10^−5 M), in series [1] (ligand 10^−6 M) and in series [1] (ligand 10^−7 M) were 99%, 99% and 96%, respectively.

As to `O=C(O)CC[C@H](NC(=O)N[C@@H](CCCCNC(=O)[C@H](Cc1ccc2ccccc2c1)NC(=O)[C@H]1CC[C@H](CNC(=O)CCCCn2cc(COc3cc(CN4CCOCCOCCN(Cc5cccc(C(=O)O)n5)CCOCCOCC4)nc(C(=O)O)c3)nn2)CC1)C(=O)O)C(=O)O` [[^225Ac]Ac-mcp-M-PSMA, metal not drawn], the “Percentage amount of colonies referred to the non-radioactive control” value in the series with LNCaP cells [2] (setting [4]) came out at 107.2%; in the series on LNCaP cells [2] (setting [5]), 91.8%; with LNCaP cells [2] (1 h incubation time, 5 kBq/mL), 19.4%; in the series on LNCaP cells [2] (1 h incubation time, 50 kBq/mL), 1.4%; in the series on LNCaP cells [2] (setting [6]), 116.8%; in the series with LNCaP cells [2] (setting [7]), 57.2%. Moreover, the “Percentage amount of colonies referred to the non-radioactive control” value was 5.3% in the series on LNCaP cells [2] (4 h incubation time, 5 kBq/mL) and 0.9% with LNCaP cells [2] (4 h incubation time, 50 kBq/mL). Further, the “RCY NP (7 d)” value in series [1] (ligand 10^−5 M), in series [1] (ligand 10^−6 M) and in series [1] (ligand 10^−7 M) was 99% in each case. In the series with LNCaP cells [3], the “decrease of relative cell number” value is listed as “approximately one third”. Further, in the series “logD7.4 determination”, the logD7.4 is given as −2.8 ± 0.1. Besides, in the series with LNCaP tumor-bearing mice (setting [8]), the Tumor-to-blood ratio came to 188.42. Further, the tumor-to-muscle ratio with LNCaP tumor-bearing mice (setting [8]) is on record as 310.82.

Consider `C#CCOc1cc(CN2CCOCCOCCN(Cc3cccc(C(=O)[O-])n3)CCOCCOCC2)nc(C(=O)[O-])c1.[225Ac+3]` [[^225Ac]Ac-mcp-M-click], for which the entries for the “RCY NP (7 d)” value in series [1] (ligand 10^−5 M), in series [1] (ligand 10^−6 M) and in series [1] (ligand 10^−7 M) were 99%, 99% and 58%, respectively. Moreover, the “RCY RP (7 d)” value in series [1] (ligand 10^−5 M) is given as 99%; in series [1] (ligand 10^−6 M), 99%; in series [1] (ligand 10^−7 M) it was 55%.
